Experimental data: patent US10517889B2, “Modulators of SMAD7 expression” (Ionis Pharmaceuticals, Inc., priority 2017, dated 2019)

Legend:
[1] = tested on: mouse Smad7 mRNA; assay: Pharmacology: mouse Smad7 mRNA expression in liver, kidney, duodenum, ileum and colon after subcutaneous administration in CD-1 mice (Example 6); assay type: in vivo; conditions: 50 mg/kg subcutaneous twice weekly for 7 weeks, normalized to GAPDH
How it was run: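 Male CD-1 mice, 8-9 weeks old, got 50 mg/kg oligonucleotide subcutaneously twice weekly (100 mg/kg/week) for 7 weeks, with PBS controls; n=4 per group. At necropsy, Smad7 mRNA in liver, kidney, duodenum, ileum and colon was measured by RT-PCR (probe set HTS7555), normalized to GAPDH; one-way ANOVA with Dunnett's test.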

[2] = Plasma chemistry markers after subcutaneous administration in beagle dogs (Example 8); conditions: 30 mg/kg subcutaneous days 1, 3, 5, 8, 15, 22, 29, plasma at day 31
Experimental: Groups of 24-25 week old male beagle dogs were injected subcutaneously with 30 mg/kg ION Ionis oligonucleotide. There were 4 animals per group. Dogs were injected every two days for the first week (day 1, 3, and 5) and once weekly thereafter (days 8, 15, 22, and 29). A control group of dogs received subcutaneous injections of PBS. Dogs were sacrificed on day 31 approximately 48 hours after the final dose and organs and plasma were harvested for further analysis.
To evaluate the effect of Ionis SMAD7 oligonucleotides on liver and kidney function, plasma levels of transaminases, albumin, creatine and BUN were measured using an automated clinical chemistry analyzer (Toshiba 200FR Neo chemistry analyzer, Toshiba Co., Japan).

[3] = Blood chemistry markers after oral gavage in CD-1 mice (Example 7); assay type: in vivo; conditions: 500 mg/kg oral gavage once daily for 4 weeks, day 30
Experimental: The objective of this study was to evaluate the tolerability and pharmacodynamics of select Ionis human SMAD7 antisense oligonucleotides in CD-1 mice following 4 weeks of treatment. The mice were administered oligonucleotides by oral gavage.
(§1) Groups of 7-8 week old male CD-1 mice were given an oral gavage dose once daily for 4 weeks of 500 mg/kg of Ionis SMAD7 oligonucleotides. Each group contained 8 mice. One group of male CD-1 mice was administered saline by oral gavage daily.
Levels of transaminases, albumin, and BUN were measured using a Toshiba 200FR NEO chemistry analyzer (Toshiba Co., Japan).

[4] = Body and organ weights after oral gavage in CD-1 mice (Example 7); assay type: in vivo; conditions: 500 mg/kg oral gavage once daily for 4 weeks, end of study
Experimental: as §1
Final body weights were measured at the end of the study. There was no significant difference in the body weight of the mice treated with antisense oligonucleotide compared to the control.
None of the Ionis SMAD7 oligonucleotides caused any changes in organ weights outside the expected range for antisense oligonucleotides.

[5] = tested on: human peripheral blood mononuclear cells (PBMCs); assay: Human PBMC activation assay, cytokine levels (IL-10, IL-6, MCP-1, TNF-α) in supernatant after 24 hours (Example 9); conditions: human PBMC supernatant after 24 hours
[6] = Hematology assays after oral gavage in CD-1 mice (Example 7); assay type: in vivo; parameters: RBC: unit not given here; conditions: 500 mg/kg oral gavage once daily for 4 weeks
Experimental: as §1
Blood obtained from all mouse groups was measured by an ADVIA2120i hematology analyzer (Siemens, USA) for measurements of the various blood cells, as well as other hematology markers. None of the Ionis SMAD7 oligonucleotides caused changes in the levels of any of the hematology markers outside the expected range for antisense oligonucleotides.

[7] = Oligonucleotide concentration in liver and colon by LC-MS/MS after subcutaneous administration in CD-1 mice (Example 6); assay type: in vivo; conditions: 50 mg/kg subcutaneously twice a week for 7 weeks, 48 hours after the last dose
Experimental: Groups of 8-9 week old male CD-1 mice were injected subcutaneously twice a week for 7 weeks with 50 mg/kg of Ionis oligonucleotides (100 mg/kg/week dose). Each group contained 4 mice. One group of male CD-1 mice was injected subcutaneously twice a week for 7 weeks with PBS. Plasma was collected for analysis on day 28.
Oligonucleotide concentrations in the liver and colon were analyzed using LC-MS/MS method.

[8] = Hematology assays after subcutaneous administration in beagle dogs (Example 8); assay type: in vivo; conditions: 30 mg/kg subcutaneous days 1, 3, 5, 8, 15, 22, 29
Experimental: There were 4 animals per group.
Blood samples were collected from the cephalic vein or saphenous vein of each animal. About 0.5 mL of blood samples was put into tubes containing the potassium salt of EDTA. Blood obtained from all dog groups was measured using an ADVIA2120i hematology analyzer for measurements of the various blood cells, as well as other hematology markers.

829994 (GGAGGCAGGGCCGCGA; 3-10-3 cEt gapmer, further chemistry not given here) [compound 829994]
% inhibition of Smad7 mRNA expression (compared to control), Kidney [1]: 73% | % inhibition of Smad7 mRNA expression (compared to control), Liver [1]: 58% | ALT [2]: 62 IU/L | AST [2]: 52 IU/L | Albumin [2]: 3.1 g/dL | BUN [2]: 15.4 mg/dL | Bilirubin [2]: 0.1 mg/dL | Creatine [2]: 0.7 mg/dL | ALT [3]: 38 IU/L | AST [3]: 71 IU/L | Albumin [3]: 3.2 g/dL | BUN [3]: 25 mg/dL | Bilirubin [3]: 0.3 mg/dL | Body weight [4]: 35 g | Heart weight [4]: 0.18 g | Kidneys weight [4]: 0.62 g | Liver with gallbladder weight [4]: 2.02 g | Spleen weight [4]: 0.11 g | Levels of IL-6 ([5]; 0.0128 μM oligonucleotide): 4.1 pg/mL | Levels of IL-10 ([5]; 0.0128 μM oligonucleotide): 2.0 pg/mL | Levels of MCP-1 ([5]; 0.0128 μM oligonucleotide): 299.8 pg/mL | Levels of TNF-α ([5]; 0.0128 μM oligonucleotide): 2.5 pg/mL | Levels of IL-6 ([5]; 0.064 μM oligonucleotide): 3.8 pg/mL | Levels of IL-10 ([5]; 0.064 μM oligonucleotide): 1.8 pg/mL | Levels of MCP-1 ([5]; 0.064 μM oligonucleotide): 379.8 pg/mL | Levels of TNF-α ([5]; 0.064 μM oligonucleotide): 2.9 pg/mL | Levels of IL-6 ([5]; 0.32 μM oligonucleotide): 4.5 pg/mL | Levels of IL-10 ([5]; 0.32 μM oligonucleotide): 1.8 pg/mL | Levels of MCP-1 ([5]; 0.32 μM oligonucleotide): 489.7 pg/mL | Levels of TNF-α ([5]; 0.32 μM oligonucleotide): 3.0 pg/mL | Levels of IL-6 ([5]; 1.6 μM oligonucleotide): 15.9 pg/mL | Levels of IL-10 ([5]; 1.6 μM oligonucleotide): 5.2 pg/mL | Levels of MCP-1 ([5]; 1.6 μM oligonucleotide): 1300.0 pg/mL | Levels of TNF-α ([5]; 1.6 μM oligonucleotide): 8.0 pg/mL | Levels of IL-6 ([5]; 8 μM oligonucleotide): 202.5 pg/mL | Levels of IL-10 ([5]; 8 μM oligonucleotide): 8.0 pg/mL | Levels of MCP-1 ([5]; 8 μM oligonucleotide): 3370.0 pg/mL | Levels of TNF-α ([5]; 8 μM oligonucleotide): 63.2 pg/mL | Levels of IL-6 ([5]; 40 μM oligonucleotide): 66.1 pg/mL | Levels of IL-10 ([5]; 40 μM oligonucleotide): 4.3 pg/mL | Levels of MCP-1 ([5]; 40 μM oligonucleotide): 1998.4 pg/mL | Levels of TNF-α ([5]; 40 μM oligonucleotide): 32.3 pg/mL | Levels of IL-6 ([5]; 200 μM oligonucleotide): 97.1 pg/mL | Levels of IL-10 ([5]; 200 μM oligonucleotide): 3.8 pg/mL | Levels of MCP-1 ([5]; 200 μM oligonucleotide): 391.7 pg/mL | Levels of TNF-α ([5]; 200 μM oligonucleotide): 28.6 pg/mL | Basophils [6]: 0.01 10^3/μL | Eosinophils [6]: 0.09 10^3/μL | Hematocrit [6]: 51.5% | Hemoglobin [6]: 15.2 g/dL | Lymphocytes [6]: 80.4% | MCH [6]: 15.1 pg | MCHC [6]: 29.5 g/dL | MCV [6]: 51.2 fL | Monocytes [6]: 0.10 10^3/μL | Neutrophils [6]: 14.0% | RBC [6]: 10.1 | Reticulocytes [6]: 3.0% | WBC [6]: 4.1 10^3/μL | platelets [6]: 1219 10^3/μL | Oligonucleotide concentration, Colon [7]: 11 μg/g tissue | Oligonucleotide concentration, Liver [7]: 45 μg/g tissue | Basophils [8]: 0.5% | Eosinophils [8]: 1.8% | Hematocrit [8]: 44% | Hemoglobin [8]: 15.3 g/dL | Lymphocytes [8]: 26% | MCH [8]: 23.2 pg | MCHC [8]: 35.1 g/dL | MCV [8]: 66 fL | Monocytes [8]: 6.3% | Neutrophils [8]: 65% | PLT [8]: 287 ^3/μL | RBC [8]: 6.6 ^6/L | Reticulocytes [8]: 0.9% | WBC [8]: 12.5 ^3/μL

830025 (antisense TTTGTAAATCGAAAGC; 3-10-3 cEt gapmer, further chemistry not given here) [compound 830025]
% inhibition of Smad7 mRNA expression (compared to control), Kidney [1]: 45% | % inhibition of Smad7 mRNA expression (compared to control), Liver [1]: 60% | ALT [2]: 26 IU/L | AST [2]: 38 IU/L | Albumin [2]: 3.1 g/dL | BUN [2]: 17.9 mg/dL | Bilirubin [2]: 0.1 mg/dL | Creatine [2]: 0.9 mg/dL | ALT [3]: 34 IU/L | AST [3]: 65 IU/L | Albumin [3]: 3.3 g/dL | BUN [3]: 21 mg/dL | Bilirubin [3]: 0.2 mg/dL | Body weight [4]: 35 g | Heart weight [4]: 0.17 g | Kidneys weight [4]: 0.71 g | Liver with gallbladder weight [4]: 1.88 g | Spleen weight [4]: 0.10 g | Levels of IL-6 ([5]; 0.0128 μM oligonucleotide): 3.1 pg/mL | Levels of IL-10 ([5]; 0.0128 μM oligonucleotide): 1.5 pg/mL | Levels of MCP-1 ([5]; 0.0128 μM oligonucleotide): 309.7 pg/mL | Levels of TNF-α ([5]; 0.0128 μM oligonucleotide): 2.8 pg/mL | Levels of IL-6 ([5]; 0.064 μM oligonucleotide): 3.8 pg/mL | Levels of IL-10 ([5]; 0.064 μM oligonucleotide): 1.9 pg/mL | Levels of MCP-1 ([5]; 0.064 μM oligonucleotide): 353.9 pg/mL | Levels of TNF-α ([5]; 0.064 μM oligonucleotide): 2.9 pg/mL | Levels of IL-6 ([5]; 0.32 μM oligonucleotide): 5.0 pg/mL | Levels of IL-10 ([5]; 0.32 μM oligonucleotide): 2.6 pg/mL | Levels of MCP-1 ([5]; 0.32 μM oligonucleotide): 387.7 pg/mL | Levels of TNF-α ([5]; 0.32 μM oligonucleotide): 3.9 pg/mL | Levels of IL-6 ([5]; 1.6 μM oligonucleotide): 12.9 pg/mL | Levels of IL-10 ([5]; 1.6 μM oligonucleotide): 3.6 pg/mL | Levels of MCP-1 ([5]; 1.6 μM oligonucleotide): 554.3 pg/mL | Levels of TNF-α ([5]; 1.6 μM oligonucleotide): 5.4 pg/mL | Levels of IL-6 ([5]; 8 μM oligonucleotide): 17.8 pg/mL | Levels of IL-10 ([5]; 8 μM oligonucleotide): 2.9 pg/mL | Levels of MCP-1 ([5]; 8 μM oligonucleotide): 750.0 pg/mL | Levels of TNF-α ([5]; 8 μM oligonucleotide): 6.7 pg/mL | Levels of IL-6 ([5]; 40 μM oligonucleotide): 19.5 pg/mL | Levels of IL-10 ([5]; 40 μM oligonucleotide): 1.4 pg/mL | Levels of MCP-1 ([5]; 40 μM oligonucleotide): 580.8 pg/mL | Levels of TNF-α ([5]; 40 μM oligonucleotide): 7.6 pg/mL | Levels of IL-6 ([5]; 200 μM oligonucleotide): 30.6 pg/mL | Levels of IL-10 ([5]; 200 μM oligonucleotide): 0.7 pg/mL | Levels of MCP-1 ([5]; 200 μM oligonucleotide): 52.7 pg/mL | Levels of TNF-α ([5]; 200 μM oligonucleotide): 4.9 pg/mL | Basophils [6]: 0.01 10^3/μL | Eosinophils [6]: 0.08 10^3/μL | Hematocrit [6]: 52.4% | Hemoglobin [6]: 15.0 g/dL | Lymphocytes [6]: 77.6% | MCH [6]: 14.9 pg | MCHC [6]: 28.5 g/dL | MCV [6]: 52.3 fL | Monocytes [6]: 0.12 10^3/μL | Neutrophils [6]: 17.5% | RBC [6]: 10.1 | Reticulocytes [6]: 3.2% | WBC [6]: 4.7 10^3/μL | platelets [6]: 1236 10^3/μL | Oligonucleotide concentration, Colon [7]: 39 μg/g tissue | Oligonucleotide concentration, Liver [7]: 77 μg/g tissue | Basophils [8]: 0.3% | Eosinophils [8]: 2.4% | Hematocrit [8]: 43% | Hemoglobin [8]: 13.9 g/dL | Lymphocytes [8]: 34% | MCH [8]: 21.7 pg | MCHC [8]: 32.5 g/dL | MCV [8]: 67 fL | Monocytes [8]: 8.2% | Neutrophils [8]: 55% | PLT [8]: 250 ^3/μL | RBC [8]: 6.4 ^6/L | Reticulocytes [8]: 1.2% | WBC [8]: 5.7 ^3/μL
